From patent US20060004029A1, “Nitrogen-containing aromatic derivatives” (priority 2003, published 2006)
Where two headings read alike, the source gives them in different places.

What was measured:
VEGFR2 = target: T1, VEGFR2 (Homo sapiens, UniProt P35968); assay: Inhibition against receptor tyrosine kinase activity (HTRF), VEGFR2; format: biochemical
T1 construct: coding for the cytoplasmic domain, beginning with lysine 791 and including the termination codon; made in house; host or cells: Sf9 insect cells, baculovirus (pFastBacHis)
T1 sequence (P35968 786-1356 limits assumed): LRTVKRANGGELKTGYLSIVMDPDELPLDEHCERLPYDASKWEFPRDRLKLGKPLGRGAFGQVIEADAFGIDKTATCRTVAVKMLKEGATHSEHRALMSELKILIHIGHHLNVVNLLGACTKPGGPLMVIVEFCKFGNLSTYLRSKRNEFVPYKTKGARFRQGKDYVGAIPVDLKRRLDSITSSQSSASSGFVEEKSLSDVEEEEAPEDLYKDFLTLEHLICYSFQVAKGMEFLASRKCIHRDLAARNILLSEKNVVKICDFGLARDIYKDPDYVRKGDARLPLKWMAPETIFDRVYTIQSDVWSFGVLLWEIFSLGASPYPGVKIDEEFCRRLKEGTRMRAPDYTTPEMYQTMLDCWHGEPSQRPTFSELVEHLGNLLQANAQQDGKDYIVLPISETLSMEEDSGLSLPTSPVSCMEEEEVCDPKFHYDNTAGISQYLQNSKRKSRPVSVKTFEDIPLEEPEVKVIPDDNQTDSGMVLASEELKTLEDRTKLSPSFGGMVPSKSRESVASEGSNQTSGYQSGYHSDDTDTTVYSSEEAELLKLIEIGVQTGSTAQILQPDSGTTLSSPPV
Procedure: This assay is used to determine inhibition of a test substance on tyrosine kinase activity. […] Expression in an appropriate expression system can produce a polypeptide with tyrosine kinase activity. […] The recombinant construct was transfected into insect cells (Spondoptea frugiperda9 (Sf9)) to prepare a recombinant Baculovirus.
For expression of the VEGFR2 tyrosine kinase, Sf9 cells were infected with the VEGFR2 recombinant virus and collected after 48 hours. The collected cells were rinsed with ice-cooled phosphate buffered saline (PBS) and then resuspended using 20 ml of ice-cooled Lysis Buffer (50 mM Tris-HCl (pH 8.5), 5 mM 2-mercaptoethanol, 100 mM KCl, 1 mM phenylmethylsulfonyl fluoride, 1% (v/v) NP-40) per 1.5×10^8 cells. The suspension was centrifuged at 12,000 rpm for 30 minutes at 4° C. and the supernatant was obtained. The supernatant was added to a Ni-NTA agarose column (3 ml, purchased from Qiagen) equilibrated with Buffer A {20 mM Tris-HCl (pH 8.5), 5 mM 2-mercaptoethanol, 500 mM KCl, 20 mM imidazole, 10% (v/v) glycerol}. The column was washed with 30 ml of Buffer A, and then with 6 ml of Buffer B {20 mM Tris-HCl (pH 8.5), 5 mM 2-mercaptoethanol, 1M KCl, 10% (v/v) glycerol}, and finally with 6 ml of Buffer A. After washing, it was eluted with 6 ml of Buffer C {20 mM Tris-HCl (pH 8.5), 5 mM 2-mercaptoethanol, 100 mM KCl, 100 mM imidazole, 10% (v/v) glycerol}. The eluate was placed on a dialysis membrane (purchased from Spectrum Laboratories) and dialyzed with a dialysis buffer {20 mM Tris-HCl (pH 7.5), 10% (v/v) glycerol, 1 mM dithiothreitol, 0.1 mM Na3VO4, 0.1 mM EGTA}. […] Using the same method for the cytoplasmic domains of FGFR1, PDGFRβ and HGFR yielded respective recombinant proteins fused with 6 histidine residues at the N-terminal (His6-FGFR1, His6-PDGFRβ or His6-HGFR).
The tyrosine kinase reaction was conducted as follows. […] Next, 10 μl of 4 μM ATP (diluted with distilled water) was added prior to incubation at 30° C. for 10 minutes, and then 10 μl of 500 mM EDTA (pH 8.0) was added.
The tyrosine phosphorylation rate for the biotin-poly(GT) was expressed as the delta F % value as described in the HTRF Standard Experiment Methods text by CIS Diagnostics Co. The delta F % value in the presence of the test substance was determined as a ratio (%) with the delta F % value with addition of His6-VEGFR2 in the absence of the test substance defined as 100% and the delta F % value in the absence of both the test substance and His6-VEGFR2 defined as 0%.

FGFR1 = target: T2, FGFR1 (Homo sapiens, UniProt P11362); assay: Inhibition against receptor tyrosine kinase activity (HTRF), FGFR1; format: biochemical
T2 construct: made in house; host or cells: Sf9 insect cells, baculovirus (pFastBacHis), by the same method as VEGFR2
T2 sequence (P11362 398-822 limits assumed): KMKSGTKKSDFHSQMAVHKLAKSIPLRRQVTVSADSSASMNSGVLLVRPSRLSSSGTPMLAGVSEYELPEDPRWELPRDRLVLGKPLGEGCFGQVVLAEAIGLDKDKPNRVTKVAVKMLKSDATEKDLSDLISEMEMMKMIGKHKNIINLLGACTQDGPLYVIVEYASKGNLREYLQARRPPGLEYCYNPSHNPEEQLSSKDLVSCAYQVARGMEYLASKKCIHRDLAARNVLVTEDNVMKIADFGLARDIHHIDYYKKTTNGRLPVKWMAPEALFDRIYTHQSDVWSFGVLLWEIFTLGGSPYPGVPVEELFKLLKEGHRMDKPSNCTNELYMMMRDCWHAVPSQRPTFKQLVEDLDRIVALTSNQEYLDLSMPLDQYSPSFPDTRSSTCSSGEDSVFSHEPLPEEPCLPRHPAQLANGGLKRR
From the text: This assay is used to determine inhibition of a test substance on tyrosine kinase activity. DNA coding for the cytoplasmic domain of VEGFR2 is obtained by total cDNA synthesis (Edwards M, International Biotechnology Lab 5(3), 19-25, 1987) or by cloning. Expression in an appropriate expression system can produce a polypeptide with tyrosine kinase activity. […] For VEGFR2 (GenBank Accession No. L04947), the 1.7 kb DNA fragment described by Terman et al. (Oncogene, 6(9), 1677-1683, 1991), coding for the cytoplasmic domain, beginning with lysine 791 and including the termination codon, was isolated from a human placental cDNA library (purchased from Clontech Laboratories, Inc.) and cloned in a Baculovirus expression vector (pFastBacHis, purchased from GIBCO BRL). The recombinant construct was transfected into insect cells (Spondoptea frugiperda9 (Sf9)) to prepare a recombinant Baculovirus. (Instructions for preparation and use of recombinant Baculovirus may be found in standard texts, such as “Bac-To-Bac Baculovirus Expression System” (GIBCO BRL).) The cytoplasmic fragment starting from lysine 398 (FGFR1, GenBank Accession No. X52833), the cytoplasmic fragment starting from lysine 558 (PDGFRβ, GenBank Accession No. M21616) or the cytoplasmic fragment starting from lysine 974 (HGFR, GenBank Accession No. J02958) may be cloned and expressed by the same method for use in assays for other tyrosine kinases. EGFR was purchased from Sigma Co. (Product No. E-2645).
For expression of the VEGFR2 tyrosine kinase, Sf9 cells were infected with the VEGFR2 recombinant virus and collected after 48 hours. The collected cells were rinsed with ice-cooled phosphate buffered saline (PBS) and then resuspended using 20 ml of ice-cooled Lysis Buffer (50 mM Tris-HCl (pH 8.5), 5 mM 2-mercaptoethanol, 100 mM KCl, 1 mM phenylmethylsulfonyl fluoride, 1% (v/v) NP-40) per 1.5×10^8 cells. The suspension was centrifuged at 12,000 rpm for 30 minutes at 4° C. and the supernatant was obtained. The supernatant was added to a Ni-NTA agarose column (3 ml, purchased from Qiagen) equilibrated with Buffer A {20 mM Tris-HCl (pH 8.5), 5 mM 2-mercaptoethanol, 500 mM KCl, 20 mM imidazole, 10% (v/v) glycerol}. The column was washed with 30 ml of Buffer A, and then with 6 ml of Buffer B {20 mM Tris-HCl (pH 8.5), 5 mM 2-mercaptoethanol, 1M KCl, 10% (v/v) glycerol}, and finally with 6 ml of Buffer A. After washing, it was eluted with 6 ml of Buffer C {20 mM Tris-HCl (pH 8.5), 5 mM 2-mercaptoethanol, 100 mM KCl, 100 mM imidazole, 10% (v/v) glycerol}. The eluate was placed on a dialysis membrane (purchased from Spectrum Laboratories) and dialyzed with a dialysis buffer {20 mM Tris-HCl (pH 7.5), 10% (v/v) glycerol, 1 mM dithiothreitol, 0.1 mM Na3VO4, 0.1 mM EGTA}. After dialysis, it was supplied for SDS-electrophoresis, and the recombinant protein (His6-VEGFR2, cytoplasmic domain of VEGFR2 fused with 6 histidine residues at the N-terminus) detected at a molecular weight of approximately 100 kDa with Coumassie Brilliant Blue staining was assayed using BSA (bovine serum albumin, purchased from Sigma Co.) as the standard substance, and stored at −80° C. until use. Using the same method for the cytoplasmic domains of FGFR1, PDGFRβ and HGFR yielded respective recombinant proteins fused with 6 histidine residues at the N-terminal (His6-FGFR1, His6-PDGFRβ or His6-HGFR).
The tyrosine kinase reaction was conducted as follows. In the case of VEGFR2, for example, 10 μl of a kinase reaction solution {200 mM Hepes (pH 7.4), 80 mM MgCl2, 16 mM MnCl2, 2 mM Na3VO4}, 250 ng of biotin-bound poly(Glu4:Tyr1) (biotin-poly(GT), purchased from CIS Diagnostics Co.) (6 μl of a 15-fold dilution with distilled water), 15 ng of His6-VEGFR2 (10 μl of a 240-fold dilution with 0.4% BSA solution) and the test substance dissolved in dimethyl sulfoxide (4 μl of a 100-fold dilution with 0.1% BSA solution) were added into each well of a 96-well round-bottom plate (NUNC Co., Product No. 163320), to a total of 30 μl. […]

[1] = His6-VEGFR2 cytoplasmic domain, biotin-poly(GT), HTRF, read-out: VEGFR2 kinase IC50
[2] = His6-FGFR1 cytoplasmic domain, biotin-poly(GT), HTRF, read-out: FGFR1 kinase IC50

Structure (SMILES) | IC50 (VEGFR2; [1]) | IC50 (FGFR1; [2]) | IC50 (VEGFR2) | IC50 (FGFR1)
CNC(=O)n1ccc2cc(Oc3ccnc(NC(=O)NCC(=O)N4CCCC4)c3)ccc21 [Example 7, 5-(2-(3-(2-Oxo-2-(pyrrolidin-1-yl)ethyl)ureido)pyridin-4-yloxy)-1H-indole-1-carboxylic acid methylamide] | 8 nM | 26 nM | – | –
CNC(=O)n1ccc2cc(Oc3ccnc(NC(=O)NCC(N)=O)c3)ccc21 [Example 11, 5-(2-(3-Carbamoylmethylureido)pyridin-4-yloxy)-1H-indole-1-carboxylic acid methylamide] | 3 nM | 47 nM | – | –
CNC(=O)n1ccc2cc(Oc3ccnc(NC(=O)N[C@@H](CO)C(=O)N4CCCC4)c3)ccc21 [Example 18, 5-(2-(3-((1S)-1-Hydroxymethyl-2-oxo-2-pyrrolidin-1-ylethyl)ureido)pyridin-4-yloxy)-1H-indole-1-carboxylic acid methylamide] | 3 nM | 70 nM | – | –
CNC(=O)n1ccc2cc(Oc3ccnc(NC(=O)NCCCC(=O)N4CCCC4)c3)ccc21 [Example 32, 5-(2-(3-(4-Oxo-4-(pyrrolidin-1-yl)butyl)ureido)pyridin-4-yloxy)-1H-indole-1-carboxylic acid methylamide] | 9.3 nM | 16 nM | – | –
CNC(=O)n1ccc2cc(Oc3ccnc(NC(=O)NCCCC(=O)NC4CC4)c3)ccc21 [Example 33, 5-(2-(3-(3-(Cyclopropylcarbamoyl)propyl)ureido)pyridin-4-yloxy)-1H-indole-1-carboxylic acid methylamide] | 7.1 nM | 12 nM | – | –
CNC(=O)n1ccc2cc(Oc3ccnc(NC(=O)NCCCC(=O)N4CCC(C)(O)CC4)c3)ccc21 [Example 34, 5-(2-(3-(4-(4-Hydroxy-4-methylpiperidin-1-yl)-4-oxobutyl)ureido)pyridin-4-yloxy)-1H-indole-1-carboxylic acid methylamide] | 8.4 nM | 22 nM | – | –
CNC(=O)CCCNC(=O)Nc1cc(Oc2ccc3c(ccn3C(=O)NC)c2)ccn1 [Example 36, 5-(2-(3-(3-(Methylcarbamoyl)propyl)ureido)pyridin-4-yloxy)-1H-indole-1-carboxylic acid methylamide] | 3.4 nM | 16 nM | – | –
CNC(=O)n1ccc2cc(Oc3ccnc(NC(=O)N4CCCC4)c3)ccc21 [Example 37, N1-Methyl-5-(2-(pyrrolidin-1-ylcarbonyl)amino-4-pyridyl)oxy-1H-1-indolecarboxamide] | 4.8 nM | 1.2 nM | – | –
CNC(=O)n1ccc2cc(Oc3ccnc(NC(=O)N4CCC(=O)CC4)c3)ccc21 [Example 40, N1-methyl-5-(2-(4-oxopiperidin-1-ylcarbonyl)amino-4-pyridyl)oxy-1H-1-indolecarboxamide] | – | – | 5.7 nM | 6.9 nM
CNC(=O)CCCC1CCN(C(=O)Nc2cc(Oc3ccc4c(ccn4C(=O)NC)c3)ccn2)CC1 [Example 43, 5-(2-(((4-(3-Methylcarbamoylpropyl)piperidin-1-yl)carbonyl)amino)pyridin-4-yloxy)-1H-indole-1-carboxylic acid methylamide] | 6.4 nM | 18 nM | – | –
CNC(=O)n1ccc2cc(Oc3ccnc(NC(=O)N4CCC(CCCC(N)=O)CC4)c3)ccc21 [Example 44, 5-(2-(((4-(3-Carbamoylpropyl)piperidin-1-yl)carbonyl)amino)pyridin-4-yloxy)-1H-indole-1-carboxylic acid methylamide] | 7.7 nM | 14 nM | – | –
CNC(=O)n1ccc2cc(Oc3ccnc(NC(=O)NCCCS(C)(=O)=O)c3)ccc21 [Example 50, N1-Methyl-5-(2-((3-methylsulfonylpropylamino)carbonyl)amino-4-pyridyl)-oxy-1H-1-indolecarboxamide] | 5 nM | 13 nM | – | –
O=C(Nc1cc(Oc2ccc3c(ccn3C(=O)NC3CC3)c2)ccn1)N1CCC(N2CCCC2)CC1 [Example 68, N1-Cyclopropyl-5-(2-(((4-(pyrrolidin-1-yl)piperidin-1-yl)carbonyl)amino)pyridin-4-yloxy)-1H-1-indolecarboxamide] | 37 nM | 52 nM | – | –
CCNC(=O)n1ccc2cc(Oc3ccnc(NC(=O)N4CCC(O)CC4)c3)ccc21 [Example 79, N1-Ethyl-5-(2-((4-hydroxypiperidin-1-yl)carbonyl)amino-4-pyridyl)oxy-1H-1-indolecarboxamide] | 9.8 nM | 25 nM | – | –
CCNC(=O)n1ccc2cc(Oc3ccnc(NC(=O)N4CCCC4)c3)ccc21 [Example 81, N1-Ethyl-5-((2-((pyrrolidin-1-ylcarbonyl)amino)-4-pyridyl)oxy)-1H-1-indolecarboxamide] | 12 nM | 38 nM | – | –
CCNC(=O)n1ccc2cc(Oc3ccnc(NC(=O)N4CCOCC4)c3)ccc21 [Example 82, N4-(4-((1-(Ethylamino)carbonyl-1H-5-indolyl)oxy)-2-pyridyl)-4-morpholinecarboxamide] | 15 nM | 24 nM | – | –
